Test results as given in the supplement of paper PMC10307832.

Key:
Assay in all cases: relative viability (nuclei count vs DMSO), 5 days (fraction); higher = more cells survive
Dinaciclib + Alpelisib = compound: CCc1cnn2c(NCc3ccc[n+]([O-])c3)cc(N3CCCC[C@H]3CCO)nc12 [Dinaciclib] + Cc1nc(NC(=O)N2CCC[C@H]2C(N)=O)sc1-c1ccnc(C(C)(C)C(F)(F)F)c1 [Alpelisib] (partner 2 µM)
In short: (§1)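 Relative viability is defined as nuclei in treated wells over nuclei in vehicle wells. Duplicate plates were run and medians reported. Lung cancer cell lines in 1536-well plates were dosed by pin tool one day after seeding, with one drug or with a fixed anchor-drug dose plus five library-drug doses (not always all listed) in √10 steps, and nuclei were counted after 5 days.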

Dinaciclib + Pictilisib = compound: CCc1cnn2c(NCc3ccc[n+]([O-])c3)cc(N3CCCC[C@H]3CCO)nc12 [Dinaciclib] + CS(=O)(=O)N1CCN(Cc2cc3nc(-c4cccc5[nH]ncc45)nc(N4CCOCC4)c3s2)CC1 [Pictilisib] (partner 1 µM)
In short: as §1

Dinaciclib + Lapatinib = compound: CCc1cnn2c(NCc3ccc[n+]([O-])c3)cc(N3CCCC[C@H]3CCO)nc12 [Dinaciclib] + CS(=O)(=O)CCNCc1ccc(-c2ccc3ncnc(Nc4ccc(OCc5cccc(F)c5)c(Cl)c4)c3c2)o1 [Lapatinib] (partner 2 µM)
In short: as §1

Dinaciclib + Phenformin = compound: CCc1cnn2c(NCc3ccc[n+]([O-])c3)cc(N3CCCC[C@H]3CCO)nc12 [Dinaciclib] + N=C(N)NC(=N)NCCc1ccccc1 [Phenformin] (partner 250 µM)
In short: as §1

Dinaciclib + Dasatinib = compound: CCc1cnn2c(NCc3ccc[n+]([O-])c3)cc(N3CCCC[C@H]3CCO)nc12 [Dinaciclib] + Cc1nc(Nc2ncc(C(=O)Nc3c(C)cccc3Cl)s2)cc(N2CCN(CCO)CC2)n1 [Dasatinib] (partner 0.075 µM)
In short: as §1

| Cell Line | relative viability (Dinaciclib + Alpelisib; first compound 0.009487 µM) | relative viability (Dinaciclib + Alpelisib; first compound 0.03 µM) | relative viability (Dinaciclib + Alpelisib; first compound 0.09487 µM) | relative viability (Dinaciclib + Alpelisib; first compound 0.3 µM) | relative viability (Dinaciclib + Pictilisib; first compound 0.009487 µM) | relative viability (Dinaciclib + Pictilisib; first compound 0.03 µM) | relative viability (Dinaciclib + Pictilisib; first compound 0.09487 µM) | relative viability (Dinaciclib + Pictilisib; first compound 0.3 µM) | relative viability (Dinaciclib + Lapatinib; first compound 0.009487 µM) | relative viability (Dinaciclib + Lapatinib; first compound 0.03 µM) | relative viability (Dinaciclib + Lapatinib; first compound 0.09487 µM) | relative viability (Dinaciclib + Lapatinib; first compound 0.3 µM) | relative viability (Dinaciclib + Phenformin; first compound 0.009487 µM) | relative viability (Dinaciclib + Phenformin; first compound 0.03 µM) | relative viability (Dinaciclib + Phenformin; first compound 0.09487 µM) | relative viability (Dinaciclib + Phenformin; first compound 0.3 µM) | relative viability (Dinaciclib + Dasatinib; first compound 0.009487 µM) | relative viability (Dinaciclib + Dasatinib; first compound 0.03 µM) | relative viability (Dinaciclib + Dasatinib; first compound 0.09487 µM) | relative viability (Dinaciclib + Dasatinib; first compound 0.3 µM) |
| --- | --- | --- | --- | --- | --- | --- | --- | --- | --- | --- | --- | --- | --- | --- | --- | --- | --- | --- | --- | --- |
| NCI-H2087 | 0.843 | 0.144 | 0.121 | 0.116 | 0.643 | 0.143 | 0.165 | 0.151 | 0.828 | 0.168 | 0.15 | 0.136 | 0.588 | 0.112 | 0.118 | 0.107 | 0.808 | 0.0939 | 0.0743 | 0.0752 |
| NCI-H2126 | 0.732 | 0.399 | 0.209 | 0.196 | 0.474 | 0.246 | 0.198 | 0.199 | 0.784 | 0.354 | 0.204 | 0.231 | 0.443 | 0.258 | 0.221 | 0.21 | 0.54 | 0.187 | 0.212 | 0.187 |
| NCI-H2170 | 0.646 | 0.166 | 0.162 | 0.198 | 0.27 | 0.151 | 0.163 | 0.196 | 0.273 | 0.197 | 0.186 | 0.175 | 0.415 | 0.133 | 0.119 | 0.152 | 0.475 | 0.137 | 0.123 | 0.13 |
| NCI-H2228 | 0.548 | 0.122 | 0.108 | 0.119 | 0.484 | 0.0919 | 0.0936 | 0.1 | 0.764 | 0.112 | 0.0806 | 0.11 | 0.256 | 0.11 | 0.0988 | 0.103 | 0.399 | 0.106 | 0.0787 | 0.0912 |
| NCI-H2347 | 0.986 | 0.324 | 0.274 | 0.222 | 0.455 | 0.292 | 0.327 | 0.179 | 0.959 | 0.637 | 0.214 | 0.259 | 0.468 | 0.131 | 0.193 | 0.209 | 0.344 | 0.246 | 0.173 | 0.171 |
| NCI-H2405 | 0.876 | 0.22 | 0.208 | 0.184 | 0.572 | 0.226 | 0.227 | 0.177 | 0.957 | 0.197 | 0.207 | 0.183 | 0.417 | 0.253 | 0.223 | 0.186 | 0.228 | 0.259 | 0.224 | 0.218 |
| NCI-H3122 | 0.489 | 0.157 | 0.119 | 0.15 | 0.385 | 0.178 | 0.134 | 0.13 | 1.01 | 0.185 | 0.147 | 0.169 | 0.172 | 0.101 | 0.103 | 0.106 | 0.616 | 0.0841 | 0.0766 | 0.0827 |
| PC-3 [JPC-3] | 0.99 | 0.899 | 0.362 | 0.21 | 0.556 | 0.578 | 0.262 | 0.233 | 0.431 | 0.419 | 0.365 | 0.23 | 0.492 | 0.476 | 0.326 | 0.204 | 0.991 | 0.978 | 0.465 | 0.194 |
| PC-14 | 0.947 | 0.515 | 0.0838 | 0.0509 | 0.436 | 0.145 | 0.0318 | 0.0249 | 0.305 | 0.221 | 0.106 | 0.0778 | 0.279 | 0.0631 | 0.0459 | 0.0379 | 0.153 | 0.0351 | 0.0238 | 0.0244 |
| RERF-LC-KJ | 0.826 | 0.41 | 0.154 | 0.161 | 0.448 | 0.19 | 0.124 | 0.117 | 0.958 | 0.563 | 0.151 | 0.128 | 0.35 | 0.223 | 0.224 | 0.185 | 0.36 | 0.192 | 0.15 | 0.159 |
| SK-LU-1 | 0.637 | 0.197 | 0.18 | 0.194 | 0.57 | 0.167 | 0.155 | 0.152 | 0.717 | 0.178 | 0.129 | 0.13 | 0.394 | 0.11 | 0.133 | 0.129 | 0.173 | 0.142 | 0.134 | 0.135 |
| SK-MES-1 | 0.757 | 0.618 | 0.119 | 0.117 | 0.381 | 0.24 | 0.128 | 0.128 | 0.5 | 0.355 | 0.16 | 0.151 | 0.533 | 0.171 | 0.147 | 0.153 | 0.217 | 0.109 | 0.0863 | 0.114 |
| SW 1573 | 0.659 | 0.432 | 0.0931 | 0.106 | 0.452 | 0.225 | 0.0748 | 0.064 | 1.25 | 0.575 | 0.0951 | 0.0867 | 0.303 | 0.0685 | 0.077 | 0.0659 | 0.161 | 0.0578 | 0.0571 | 0.06 |
| UMC-11 | 0.285 | 0.147 | 0.135 | 0.158 | 0.217 | 0.145 | 0.132 | 0.136 | 0.442 | 0.179 | 0.143 | 0.169 | 0.214 | 0.197 | 0.192 | 0.185 | 0.209 | 0.175 | 0.142 | 0.144 |
